Test results as given in ChEMBL document CHEMBL1125141, “Structure-activity relationships of N2-substituted guanines as inhibitors of HSV1 and HSV2 thymidine kinases” (J Med Chem, 1990).

target: T1, Thymidine kinase (Human alphaherpesvirus 1, UniProt Q9QNF7); test: Inhibition of TdR phosphorylation using thymidine kinase assay for herpes simplex virus type 1; format: functional
T1 sequence (Q9QNF7 whole entry): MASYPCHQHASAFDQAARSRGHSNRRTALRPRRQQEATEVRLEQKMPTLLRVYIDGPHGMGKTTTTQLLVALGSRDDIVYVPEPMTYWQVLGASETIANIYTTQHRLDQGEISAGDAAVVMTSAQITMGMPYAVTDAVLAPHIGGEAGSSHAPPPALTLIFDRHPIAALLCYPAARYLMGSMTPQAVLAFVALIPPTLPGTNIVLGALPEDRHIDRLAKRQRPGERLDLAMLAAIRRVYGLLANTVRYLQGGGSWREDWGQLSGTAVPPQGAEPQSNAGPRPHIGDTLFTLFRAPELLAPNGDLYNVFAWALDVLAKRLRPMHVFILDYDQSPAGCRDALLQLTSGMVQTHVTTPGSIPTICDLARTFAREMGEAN

`CCCCc1ccc(Nc2nc3nc[nH]c3c(=O)[nH]2)cc1` and `Cc1ccc(Nc2nc3nc[nH]c3c(=O)[nH]2)cc1` are the same in IC50: 50 µM for the first, 50 µM for the second.

Compared with `O=c1nc(Nc2cccc(CO)c2)[nH]c2nc[nH]c12`, `CCc1cccc(Nc2nc3nc[nH]c3c(=O)[nH]2)c1` is 10-fold lower in IC50: 25 µM for the first, 2.5 µM for the second.

First: O=c1[nH]c(NCc2ccc(Cl)cc2)nc2nc[nH]c12
Second: O=c1[nH]c(Nc2ccc(O)cc2)nc2nc[nH]c12
The IC50 of the first is 16-fold lower: 8.5 µM for the first, 140 µM for the second.

Going from `OCCCCCNc1nc(O)c2[nH]cnc2n1` to `CCCCCCNc1nc(O)c2[nH]cnc2n1`, the IC50 falls from 100 µM to 55 µM (1.8-fold).

Going from `Oc1[nH]c(Nc2ccc(F)c(Cl)c2)nc2ncnc1-2` to `Oc1[nH]c(Nc2cccc(Cl)c2)nc2ncnc1-2`, the IC50 falls from 8 µM to 1.3 µM (6.2-fold). The second is the more potent here.

Going from `O=c1[nH]c(Nc2ccc(F)c(F)c2)nc2nc[nH]c12` to `O=c1[nH]c(Nc2cccc(C(F)(F)F)c2)nc2nc[nH]c12`, the IC50 falls from 50 µM to 0.15 µM (330-fold). The second is the more potent here.

Compared with `Oc1[nH]c(Nc2ccc(Br)cc2)nc2ncnc1-2`, `Oc1[nH]c(Nc2ccc(C(F)(F)F)cc2)nc2ncnc1-2` is 30-fold higher in IC50: 1 µM for the first, 30 µM for the second. The first is the more potent here.

Going from `Oc1[nH]c(Nc2ccc3ccccc3c2)nc2ncnc1-2` to `Oc1[nH]c(Nc2ccc(Br)c(Br)c2)nc2ncnc1-2`, the IC50 falls from 40 µM to 3 µM (13-fold). The second is the more potent here.

target: T1, Thymidine kinase; test: Inhibition of TdR phosphorylation using thymidine kinase (TK) assay for herpes simplex virus type 1 (HSV-1).; format: functional

`CCCCCCNC1=NC(=O)C2N=CN([C@H]3C[C@H](O)[C@@H](CO)O3)C2=N1` (some centres not stated) showed a Ki of 2.6 µM.
